Test results reported in US20220267753A1, “RATIONAL THERAPEUTIC TARGETING OF ONCOGENIC IMMUNE SIGNALING STATES IN MYELOID MALIGNANCIES VIA THE UBIQUITIN CONJUGATING ENZYME UBE2N” (CHILDREN'S HOSPITAL MEDICAL CENTER, priority 2019, published 2022).

What was measured:
UBE2N/UBE2V1 = target: T1, UBE2N/UBE2V1 (Homo sapiens, UniProt P61088); assay: Thioester bond formation assay; assay type: biochemical; settings: read-out: inhibition of UBE2N-Ub thioester conjugate formation
T1 construct: purchased Enzo Life Science BML-UW9565
Protocol: An in vitro Ubiquitin-E2 thioester (TE) bond formation assay was performed as described (Enzo Life Science, #BML-UW9920-0001, Farmingdale, N.Y.). The reaction was prepared as follows: 10×E2 (UBE2N/Mms2, No. BML-UW9565; UbcH5a, No. BML-UW9050; or UbcH6, Prod. No. BML-UW8710) were incubated with UC-764864 or UC-764865 at 1 or 2 μM for 30 minutes at room temperature. After the incubation period, the following reagents were added to the reaction: distilled water, 10× ubiquitination buffer, inorganic pyrophosphatase solution (100 U/mL in 20 mM Tris-HCl, pH 7.5, Sigma, 83205, St. Louis, Mo.), 50 mM DTT, 0.1 M Mg-ATP, 20×E1 (recombinant human ubiquitin-activating enzyme) and 20× biotinylated ubiquitin to a final volume of 10 p.l. The mixture was incubated for 4 hours at 37° C. The reaction was stopped by adding 10 p.l 2× non-reducing gel loading buffer. 15 p.l of the samples were run on SDS-PAGE gels and transferred to PVDF membrane. […] After washing the membrane for 6×10 mins with TBS-T on a rocking platform, total ubiquitin was detected with ECL detection reagent (Pierce™ ECL Western Blotting Substrate, #32106, Appleton, Wis.) according to the manufacturer's instructions. Detect emitted signal with Biorad ChemiDoc™ MP and analyzed with Image lab software 6.0.1 (Biorad, Hercules, Calif.) or Image J [67]. […]

HL-60 = assay: Cell proliferation MTS assay; assay type: cell-based; settings: Homo sapiens; HL-60, MTS, 24 hours
Protocol: (§1) AML cell lines (5×10^3 cells/well) were seeded in 96-well plates and grown for 24 to 96 h in serum (10%)-containing medium in the presence or absence of inhibitors at the indicated concentrations. Proliferation was analyzed by means of an MTS assay using the CellTiter 96 Aqueous One Solution Cell Proliferation Assay (Promega, Madison, Wis., USA), according to the manufacturer's instructions. Data are mean with standard deviation from three independent experiments in technical triplicates. For the screening of 160 compounds from the UC library, the cell metabolic activity was assessed at 24 hours of treatment of MOLM-13 cells. Top 15 candidates were re-screened at 2 μM, and the cell metabolic activity was determined at 24 hours of treatment. In certain experiments, cell viability was determined by staining the cells with trypan blue at a 1/2 dilution and counting total number of viable cells upon treatment with UC-764864 or DMSO control. The cells were counted daily for 4 days using an automated cell counter (Countess II FL from Life Technologies). The cell proliferation in primary AMLs in FIG. 9E was performed as follows: 50,000 cells were plated in duplicate in a 96 well plate in IMDM containing 20% heat inactivated FBS plus 10 ng/ml of each SCF, IL3, IL6, TPO, and FLT3. UC-764864 was added at the indicated concentrations and cells were incubated with drug for 3 days, at which point cell viability was measured by MTS according to manufacturer's instructions.

KG-1a = assay: Cell proliferation MTS assay; assay type: cell-based; settings: Homo sapiens, 24 hours
Protocol: as §1

Kasumi-1 = assay: Cell proliferation MTS assay; assay type: cell-based; settings: Homo sapiens; Kasumi-1, MTS, 24 hours
Protocol: as §1

MDS92 = assay: Cell proliferation MTS assay; assay type: cell-based; settings: Homo sapiens, 24 hours
Protocol: as §1

MDSL = assay: Cell proliferation MTS assay; assay type: cell-based; settings: Homo sapiens, 24 hours
Protocol: as §1

MOLM-14 = assay: Cell proliferation MTS assay; assay type: cell-based; settings: Homo sapiens; MOLM-14, MTS, 24 hours
Protocol: as §1

MV4-11 = assay: Cell proliferation MTS assay; assay type: cell-based; settings: Homo sapiens; MV4-11, MTS, 24 hours
Protocol: as §1

NOMO-1 = assay: Cell proliferation MTS assay; assay type: cell-based; settings: Homo sapiens; NOMO-1, MTS, 24 hours
Protocol: as §1

SKM-1 = assay: Cell proliferation MTS assay; assay type: cell-based; settings: Homo sapiens; SKM-1, MTS, 24 hours
Protocol: as §1

THP-1 = assay: Cell proliferation MTS assay; assay type: cell-based; settings: Homo sapiens; THP-1, MTS, 24 hours
Protocol: as §1

[1] = Microsomal stability (human liver microsomes); assay type: in vitro ADME

T1 sequence (P61088 whole entry): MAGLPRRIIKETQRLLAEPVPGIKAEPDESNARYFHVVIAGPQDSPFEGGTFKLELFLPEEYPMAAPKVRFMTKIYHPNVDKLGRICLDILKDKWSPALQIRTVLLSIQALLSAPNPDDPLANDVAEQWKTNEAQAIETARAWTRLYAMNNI
T1 sequence (Q13404 whole entry partner): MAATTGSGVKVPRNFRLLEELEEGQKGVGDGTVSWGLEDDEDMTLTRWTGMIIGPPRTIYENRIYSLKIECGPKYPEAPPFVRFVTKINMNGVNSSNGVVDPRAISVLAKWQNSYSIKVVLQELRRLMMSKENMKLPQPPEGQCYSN

- inhibition at 1 µM (UBE2N/UBE2V1; 1 μM): 20%
- inhibition at 2 µM (UBE2N/UBE2V1; 2 μM): 80%
- IC50 (HL-60): 4.3 µM
- IC50 (MOLM-14): 0.02 µM
- IC50 (MV4-11): 5 µM
- IC50 (SKM-1): 0.4 µM
- IC50 (THP-1): 2.5 µM
- metabolism in human liver microsomes [1]: readily metabolized
Compound: CCc1ccc(C(=O)C=CSc2nc3ccc(C)cc3[nH]2)cc1 [UC-764864, 1-(4-ethylphenyl)-3-[(6-methyl-1H-benzimidazol-2-yl)sulfanyl]prop-2-en-1-one]
- IC50 (KG-1a): > 10 µM
- IC50 (Kasumi-1): 6.6 µM
- IC50 (MDS92): > 10 µM
- IC50 (MDSL): 5.6 µM
- IC50 (NOMO-1): 6.7 µM
